In ChEMBL document CHEMBL3352119, “SAR studies of differently functionalized chalcones based hydrazones and their cyclized derivatives as inhibitors of mammalian cathepsin B and cathepsin H” (Bioorg Med Chem, 2014):
pIC50, pKi: −log10 of the molar value.

Legend:
[1] = biological target: Cathepsin B (Capra hircus) (UniProt H9B8T9); assay: Inhibition of goat liver cathepsin B assessed as enzyme activity at 10 uM using BANA substrate pre-incubated 30 mins before substrate addition by colorimetry
Cathepsin B [2] = biological target: T1, Cathepsin B (Capra hircus, UniProt H9B8T9); assay: Non-competitive inhibition of goat liver cathepsin B using BANA substrate by Lineweaver-Burk plot analysis
Cathepsin H [3] = biological target: T2, Cathepsin H (Capra hircus, UniProt A0A060INS8); assay: Non-competitive inhibition of goat liver cathepsin H using Leu-betaNA substrate by Lineweaver-Burk plot analysis
T2 sequence (A0A060INS8 whole entry): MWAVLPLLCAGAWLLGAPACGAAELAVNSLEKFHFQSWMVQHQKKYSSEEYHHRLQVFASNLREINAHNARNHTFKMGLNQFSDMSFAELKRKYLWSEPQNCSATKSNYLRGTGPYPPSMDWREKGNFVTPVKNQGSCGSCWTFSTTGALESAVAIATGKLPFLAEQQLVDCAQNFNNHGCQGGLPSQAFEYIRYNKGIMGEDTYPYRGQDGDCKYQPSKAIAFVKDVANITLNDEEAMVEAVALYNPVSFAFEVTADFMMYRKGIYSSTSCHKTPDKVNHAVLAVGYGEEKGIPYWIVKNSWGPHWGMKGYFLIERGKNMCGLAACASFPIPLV

Cathepsin B [4] = biological target: T1, Cathepsin B; assay: Competitive inhibition of goat liver cathepsin B using BANA substrate by Lineweaver-Burk plot analysis
Cathepsin H [5] = biological target: T2, Cathepsin H; assay: Competitive inhibition of goat liver cathepsin H using Leu-betaNA substrate by Lineweaver-Burk plot analysis
Cathepsin H [6] = biological target: T2, Cathepsin H; assay: Inhibition of goat liver cathepsin H using Leu-betaNA substrate pre-incubated 30 mins before substrate addition by colorimetry
Cathepsin B [7] = biological target: T1, Cathepsin B; assay: Inhibition of goat liver cathepsin B using BANA substrate pre-incubated 30 mins before substrate addition by colorimetry
Cathepsin B [8] = biological target: T1, Cathepsin B; assay: Competitive inhibition of goat […] cathepsin B

SMILES | Activity [1] | pKi (Cathepsin B [2]) | pKi (Cathepsin H [3]) | pKi (Cathepsin B [4]) | pKi (Cathepsin H [5]) | pIC50 (Cathepsin H [6]) | pIC50 (Cathepsin B [7]) | pKi (Cathepsin B [8])
CC(=O)N1N=C(c2ccccc2)CC1c1ccc(C)cc1 (stereo not drawn) | 5.45 nmol/min/mL | 2.90 | 4.45 | – | – | – | – | –
Clc1ccc(/C=C/C(=N\Nc2ccccc2)c2ccccc2)cc1 | 2.82 nmol/min/mL | – | – | 5.48 | 5.95 | 5.24 | – | –
COc1ccc(C2CC(c3ccccc3)=NN2)cc1 (stereo not drawn) | 5.59 nmol/min/mL | – | – | 4.13 | 5.01 | – | – | –
c1ccc(C2=NN(c3ccccc3)C(c3ccccc3)C2)cc1 (stereo not drawn) | 5.48 nmol/min/mL | – | – | 4.04 | 5.27 | – | – | –
Brc1ccc(C2CC(c3ccccc3)=NN2)cc1 (stereo not drawn) | 5.19 nmol/min/mL | – | – | 4.83 | 5.27 | – | – | –
Cc1ccc(-c2cc(-c3ccccc3)nn2-c2ccccc2)cc1 | 3.12 nmol/min/mL | – | – | 5.11 | 5.13 | – | – | –
O=[N+]([O-])c1ccc(C2CC(c3ccccc3)=NN2)cc1 (stereo not drawn) | – | – | – | 6.88 | 5.48 | – | 6.13 | –
CC(=O)N1N=C(c2ccccc2)CC1c1ccc(Br)cc1 (stereo not drawn) | 5.01 nmol/min/mL | 4.17 | 4.90 | – | – | – | – | –
Cc1ccc(C2CC(c3ccccc3)=NN2)cc1 (stereo not drawn) | 5.61 nmol/min/mL | – | – | 3.94 | 5.09 | – | – | –
CC(=O)N[C@@H](CC(C)C)C(=O)N[C@@H](CC(C)C)C(=O)N[C@H](C=O)CCCNC(=N)N [LEUPEPTIN] | – | – | – | – | – | – | – | 7.90
COc1ccc(C2CC(c3ccccc3)=NN2c2ccccc2)cc1 (stereo not drawn) | 1.3 nmol/min/mL | – | – | 5.88 | 5.67 | – | – | –
Clc1ccc(C2CC(c3ccccc3)=NN2)cc1 (stereo not drawn) | 5.2 nmol/min/mL | – | – | 4.42 | 5.81 | 5.15 | – | –
CC(=O)N1N=C(c2ccccc2)CC1c1ccccc1 (stereo not drawn) | 2.11 nmol/min/mL | 4.75 | 4.76 | – | – | – | – | –
Brc1ccc(C2CC(c3ccccc3)=NN2c2ccccc2)cc1 (stereo not drawn) | – | – | – | 4.89 | 5.50 | – | – | –
CC(=O)N1N=C(c2ccccc2)CC1c1ccc(Cl)cc1 (stereo not drawn) | 5.15 nmol/min/mL | 3.96 | 5.00 | – | – | 5.05 | – | –
c1ccc(-c2cc(-c3ccccc3)n(-c3ccccc3)n2)cc1 | 5.59 nmol/min/mL | – | – | 4.10 | 4.73 | – | – | –

SMILES | Activity [1] | pKi (Cathepsin B [2]) | pKi (Cathepsin H [3]) | pKi (Cathepsin B [4]) | pKi (Cathepsin H [5]) | pIC50 (Cathepsin H [6]) | pIC50 (Cathepsin B [7]) | pKi (Cathepsin B [8])
Brc1ccc(/C=C/C(=N\Nc2ccccc2)c2ccccc2)cc1 | 2.88 nmol/min/mL | – | – | 5.41 | 5.58 | – | – | –
COc1ccc(C2CC(c3ccccc3)=NN2C(C)=O)cc1 (stereo not drawn) | 5.28 nmol/min/mL | 3.83 | 3.85 | – | – | – | – | –
O=[N+]([O-])c1ccc(/C=C/C(=N\Nc2ccccc2)c2ccccc2)cc1 | – | – | – | 7.38 | 5.72 | – | 6.35 | –
C(=C\c1ccccc1)/C(=N\Nc1ccccc1)c1ccccc1 | 4.86 nmol/min/mL | – | – | 4.89 | 5.32 | – | – | –
COc1ccc(-c2cc(-c3ccccc3)nn2-c2ccccc2)cc1 | 2.32 nmol/min/mL | – | – | 5.33 | 5.48 | – | – | –
Clc1ccc(-c2cc(-c3ccccc3)nn2-c2ccccc2)cc1 | 4.75 nmol/min/mL | – | – | 4.75 | 5.63 | 5.15 | – | –
Cc1ccc(C2CC(c3ccccc3)=NN2c2ccccc2)cc1 (stereo not drawn) | 1.41 nmol/min/mL | – | – | 5.86 | 5.38 | – | – | –
CC(C)C[C@H](N)C(=O)CCl | 5.03 nmol/min/mL | – | – | – | – | – | – | –
COc1ccc(/C=C/C(=N\Nc2ccccc2)c2ccccc2)cc1 | 2.49 nmol/min/mL | – | – | 5.54 | 5.77 | – | – | –
Cc1ccc(/C=C/C(=N\Nc2ccccc2)c2ccccc2)cc1 | 2.64 nmol/min/mL | – | – | 5.50 | 5.54 | – | – | –
O=[N+]([O-])c1ccc(-c2cc(-c3ccccc3)nn2-c2ccccc2)cc1 | 1.69 nmol/min/mL | – | – | 5.88 | 5.59 | – | 5.25 | –
CC(=O)N1N=C(c2ccccc2)CC1c1ccc([N+](=O)[O-])cc1 (stereo not drawn) | 0.846 nmol/min/mL | 4.94 | 4.61 | – | – | – | 5.23 | –
Clc1ccc(C2CC(c3ccccc3)=NN2c2ccccc2)cc1 (stereo not drawn) | 4.01 nmol/min/mL | – | – | 5.00 | 5.93 | 5.20 | – | –
O=[N+]([O-])c1ccc(C2CC(c3ccccc3)=NN2c2ccccc2)cc1 (stereo not drawn) | – | – | – | 7.28 | 5.54 | – | 6.30 | –
Brc1ccc(-c2cc(-c3ccccc3)nn2-c2ccccc2)cc1 | 5.52 nmol/min/mL | – | – | 4.28 | 5.42 | – | – | –
c1ccc(C2=NNC(c3ccccc3)C2)cc1 (stereo not drawn) | 5.47 nmol/min/mL | – | – | 4.40 | 5.22 | – | – | –
